Laboratory results from article PMC12266748, “A Xanthine Derivative With Novel Heat Shock Protein 90‐Alpha Inhibitory and Senolytic Properties” (Aging Cell, 2025).

Tests used:
[1] = Phase I stability in mouse liver microsomes; type: in vitro ADME; details: 1 µM, 0.5 mg/mL microsomes
Description: (§1) APHAD S.r.l (Buccinasco, MI, Italy) performed all evaluations. Detailed protocols are reported in the extended methods section.
Phase I stability in human and mouse liver microsomes. The metabolic stability of K4 and K5 was evaluated after incubation with mouse and human liver microsomes. Briefly, the 2 compounds were dissolved in DMSO and pre-incubated, at the final concentration of 1µM, for 10 min at 37°C in potassium phosphate buffer 50 mM, pH 7.4, 3 mM MgCl2, with mouse and human liver microsomes (Sigma) at the final concentration of 0.5 mg/mL. After the pre-incubation period, reactions were started by adding the cofactors mixture (NADP, Glc6P, Glc6P-DH in 2% Sodium bicarbonate); samples were taken at time 0, 10, 20, 30, and 60 min, and added to ACN with Verapamil 0.1 µM as Internal Standard (IS) to stop the reaction. After centrifugation, the supernatants were analyzed using LC-MS/MS. A control sample without cofactors was added to check the stability of test compounds in the matrix after 60 min. 7-Ethoxycoumarin (7-EC) and propranolol were added as positive reference standards. Samples were analyzed on Acquity UPLC (Waters) coupled with an API 3200 Triple Quadrupole ABSciex. […] The percent of the area of the test compound remaining at the various incubation times was calculated based on the area of the compound at time 0 min. […]

[2] = Bidirectional permeability in Caco-2 cells; type: in vitro ADME; details: 5 µM, HBSS pH 7.4, 2 hours
Description: as §1
Permeability in Caco-2 cells. To evaluate the bidirectional permeability of the 2 compounds, Caco-2 cells (ECACC, ReadyCells, Barcellona, Spain), considered a reference cellular line for in vitro preclinical evaluation of oral dosage products, were used. These cells are cultured in monolayers, which become differentiated polarized epithelial cells after 21 days, expressing tight junctions, microvilli, intracellular metabolic enzymes, and transmembrane transporters such as BCRP, MDR1, and MRP2 (an artificial model equivalent to the intestinal epithelium). […] At the end of the experiment, the integrity of the cellular junction was measured by incubating the Lucifer yellow (LY) at the apical side (at the concentration of 0.02 mg/mL in MEM medium) and with MEM medium in the basolateral compartment for 1 hour at 37°C. At the end of incubation, fluorescence was read on a fluorimeter at λ 430-538nm. Samples were analyzed on a UPLC Acquity (Waters) coupled with an API 3200 Triple Quadrupole AB Sciex. […] The apparent permeability (Papp), the efflux ratio (ER), and the Recovery (R) were calculated to allow for estimation of metabolism and non-specific binding. […] Data are expressed as mean of n=2 (± SD).

TRAP1 = biological target: T1, TRAP1 (Homo sapiens, UniProt Q12931); test: Cellular thermal shift assay (CETSA) on cellular lysates, TRAP1; details: 46°C, compound 0.5 mM
T1 sequence (Q12931 60-704): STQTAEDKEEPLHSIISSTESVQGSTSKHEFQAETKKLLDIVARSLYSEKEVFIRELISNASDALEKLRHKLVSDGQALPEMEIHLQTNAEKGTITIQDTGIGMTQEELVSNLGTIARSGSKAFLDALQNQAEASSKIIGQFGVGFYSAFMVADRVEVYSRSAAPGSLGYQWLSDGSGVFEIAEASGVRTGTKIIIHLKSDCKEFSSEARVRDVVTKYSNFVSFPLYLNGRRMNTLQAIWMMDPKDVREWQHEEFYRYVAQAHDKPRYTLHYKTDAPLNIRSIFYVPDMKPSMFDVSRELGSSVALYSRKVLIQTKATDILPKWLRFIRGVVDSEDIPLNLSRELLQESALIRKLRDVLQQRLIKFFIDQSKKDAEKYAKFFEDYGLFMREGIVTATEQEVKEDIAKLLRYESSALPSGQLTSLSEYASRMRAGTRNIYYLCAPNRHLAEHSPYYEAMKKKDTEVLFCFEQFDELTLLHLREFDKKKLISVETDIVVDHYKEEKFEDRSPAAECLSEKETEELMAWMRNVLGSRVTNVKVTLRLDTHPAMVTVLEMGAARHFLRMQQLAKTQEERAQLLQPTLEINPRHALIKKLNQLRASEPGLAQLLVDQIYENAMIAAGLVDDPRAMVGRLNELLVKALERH
Description: Cellular Thermal Shift Assay (CETSA). […] Briefly, the cellular extract was lysed in RIPA buffer (10 mM Tris-HCl pH 7.4, 250 mM NaCl, 1% NP40/IGEPAL, 1% DOC, 0.01% SDS, 0.01% Glycerol, supplemented with protease/phosphatase inhibitor, PI/PhI mix and 2 mM DTT) and protein concentration was determined by a BCA kit (Pierce, Life Technologies, TFS, Waltham, MA, USA). Samples were homogenized by 3 cycles of freeze-thawing using liquid nitrogen and centrifuged at 13000 rpm at 4 °C for 30 min to separate the soluble fraction from the debris.
Following the supplier's recommendations, samples were loaded into the proper cartridge (12- 230 kDa Wes/Jess Separation Modules, ProteinSimple, Biotechne, Minneapolis, MN, USA). HSP90α (1:50, MsMAb, Abcam), HSP90β (1:50, RbMAb, Abcam), GRP94 (1:50, RbMAb, Abcam), TRAP1 (1:50, MsMAb, Abcam), α-Tubulin (1:500, MsMAb, Abcam), and β-Actin (1:500, RbMAb, Abcam) were used as primary antibodies. Secondary antibodies were Anti-Mouse Secondary HRP and Anti-Rabbit Secondary HRP (ProteinSimple, Biotechne, Minneapolis, MN, USA).

MCF7 cells = test: Western blot of MCF7 protein expression after Tamoxifen treatment; type: cell-based, Homo sapiens; details: MCF7, TAM 10 μM + K5 10 μM, compared to DMSO
Description: WB was performed according to standard procedures and detected by UVITEC (Eppendorf). Densitometric analysis was performed with NIH ImageJ 1.8 software.
Western Blot. WB was performed according to standard procedures. Total protein extract was performed as in (Aiello et al. 2016). Western blot assay used 10 µg of protein extract and proteins solved by SDS-PAGE. […] Densitometric analysis was performed with NIH Image J 1.8 software (National Institutes of Health, Bethesda, MD, USA), and specific values were normalized to loading control (β-Actin).

| SMILES | clearance in mouse microsomes [1] | Caco-2 bidirectional permeability [2] | stabilization of TRAP1 in CETSA (TRAP1) | Caspase 3 protein level (MCF7 cells) |
| --- | --- | --- | --- | --- |
| CC(C)(C)S(=O)(=O)C/C(N)=N/OS(=O)(=O)c1ccc(F)cc1F [Compound K4, (Z)-N'-[(2,4-difluorobenzenesulfonyl)oxy]-2-(2-methylpropane-2-sulfonyl)ethanimidamide] | medium clearance | no K4 signal was detected | did not observe a stabilization | – |
| Cc1ccccc1-n1c(=O)n(Cc2ccccc2)c(=O)c2[nH]cnc21 [Compound K5, 1-benzyl-3-(2-methylphenyl)-7H-purine-2,6-dione] | medium clearance | excellent permeability in both directions | did not observe a stabilization | further increased |
